Columns and labels:
Proteus C889 = assay: standard MIC test of ampicillin with synergist, Proteus C889; assay type: cell-based; conditions: 0 μg/ml synergist (ampicillin alone)
Source text: (§1) The synergist referred to hereinafter is sodium 9-O-carboxamidomethylclavulanate.

E. Coli JT 39 = assay: standard MIC test of ampicillin with synergist, E. Coli JT 39; assay type: cell-based
Source text: as §1

Kleb. E 70 = assay: standard MIC test of ampicillin with synergist, Kleb. E 70; assay type: cell-based
Source text: as §1

Staph. Russell = assay: standard MIC test of ampicillin with synergist, Staph. Russell; assay type: cell-based
Source text: as §1

E. coli JT 39 infection = E. coli JT 39 infection in mice, CD50 of amoxycillin with subcutaneous synergist; assay type: in vivo
[1] = toxic effects during testing at therapeutic doses in animals; assay type: in vivo
[2] = tested on: Staph. Russell, Kleb. E 70, Proteus C889, E. Coli JT 39; assay: standard MIC tests, synergy statement; assay type: cell-based; conditions: with ampicillin
Source text: as §1

[3] = 0 μg/ml synergist (ampicillin alone)
[4] = synergist alone, obtained in separate test

In the case of `CC1(C)S[C@@H]2[C@H](NC(=O)[C@H](N)c3ccccc3)C(=O)N2[C@H]1C(=O)O` [Ampicillin, reference compound], the “MIC of Ampicillin” value (Proteus C889) is reported as greater than 32 µg/mL, the “MIC of Ampicillin” value (E. Coli JT 39; [3]) is reported as greater than 32 µg/mL and the “MIC of Ampicillin” value (Kleb. E 70; [3]) is reported as greater than 32 µg/mL. For the same compound, the “MIC of Ampicillin” value (Staph. Russell; [3]) was greater than 32 µg/mL.
With `NC(=O)COC/C=C1\O[C@@H]2CC(=O)N2[C@H]1C(=O)O` [Example 2, Sodium 9-O-carboxamidomethylclavulanate] the “effect of the compound alone on infection” value (E. coli JT 39 infection; compound of this example alone at 2 mg/kg×2) was “no effect”, the overt toxic symptoms ([1]; in vivo) was “No overt toxic symptoms were observed” and the “animal deaths due to toxic effects” value ([1]; therapeutic doses) was “did not cause animal deaths due to toxic effects”. For the same compound, the “synergy in standard MIC tests” value [2] was “demonstrated synergy”, the MIC (E. Coli JT 39; Escherichia coli, synergist alone, obtained in separate test) was 31 µg/mL and the MIC (Kleb. E 70; [4]) was 31 µg/mL. It also gave an MIC (Staph. Russell; [4]) of 31 µg/mL.
In the case of `CC1(C)S[C@@H]2[C@H](NC(=O)[C@H](N)c3ccc(O)cc3)C(=O)N2[C@H]1C(=O)O` [amoxycillin, reference compound], the CD50 of amoxycillin (E. coli JT 39 infection; amoxycillin alone) is reported as “greater than 500 mg/kg×2”.

From patent US4409207A, “Derivatives of clavulanic acid, a process for their preparation and their use” (Beecham Group Limited, priority 1978, dated 1983)
